# Article PMC5762859, “Distribution analysis of epertinib in brain metastasis of HER2-positive breast cancer by imaging mass spectrometry and prospect for antitumor activity” (Scientific Reports, 2018)
# Where two headings read alike, the source gives them in different places.
# Assays:
# [1] = Plasma and brain pharmacokinetics after single oral administration in mice implanted intracranially with MDA-MB-361 cells; settings: for concentration at 8 h / Tmax / concentration at 0.5 h / concentration at 1 h / concentration at 2 h / concentration at 4 h / concentration at 24 h / AUC(0-t) / Cmax: female, mouse, po; for AUC0–24 h, brain / Cmax, brain: single oral 20 mg/kg, mice
# Description: (§1) All experimental protocols were approved by the Institutional Animal Care and Use Committee of Shionogi & Co., Ltd (Osaka, Japan) and performed in accordance with the Guidelines for Animal Experiments of Shionogi & Co., Ltd, which meet the ethical standards required by the law and the guidelines about the experimental animals in Japan. Nude mice (BALB/cAJcl-nu/nu, CLEA Japan) were used for in vivo studies. All mice were female and six to nine weeks old at the time of implantation. […] Plasma was separated by centrifugation at 3,000 rpm for 15 min at 4 °C and stored at −80 °C until analysis. After blood sampling, brain tissues were immediately excised, frozen on dry ice, and stored at −80 °C prior to sectioning.
# (§2) The mixture was stirred for 10 min and centrifuged at 5,000 rpm for 5 min at 10 °C, and 1 µL of the supernatant was injected into the LC-MS/MS system. An ultra-HPLC system (Nexera LC-20A, Shimadzu Corp., Kyoto, Japan) with a triple quadrupole mass spectrometer (API 5000^TM, AB Sciex, Forester City, CA, USA) was used for LC/MS/MS analysis. The LC-MS/MS system was controlled by Analyst 1.4.2 (AB Sciex) software. Chromatographic separation was performed using a Cadenza CD-C18 HT column (50 × 2.0 mm i.d., 3 µm; Imtakt Corp., Kyoto, Japan).
# [2] = Plasma exposure after single oral administration in nude mice; assay type: in vivo; settings: mouse, single oral 50 mg/kg, read-out: Plasma exposure (AUC0–24 h)
# [3] = Quantitative MALDI-IMS of drug in brain metastases of the breast cancer IVM (BR2, BR3); assay type: in vivo, mice; settings: for concentration at 4 h / concentration at 8 h: female, BALB/cAJcl-nu/nu, mouse, tumor (brain metastasis) in brain sections, po, 50 mg/kg, IMS; for concentration at 4 h: 4 h after single oral 50 mg/kg; for concentration at 8 h: 8 h after single oral 50 mg/kg
# Protocol: BTB integrity in the IVM was assessed by measuring the fluorescence intensity of Texas-Red® dextran in the metastatic regions or brain parenchyma. Metastatic regions were defined as cancer cell clusters with DAPI staining in the same brain section (Fig. 2E and Supplementary Fig. S2C).
# as §1
# (§3) In the experimental brain metastasis of breast cancer or lung cancer (IVM), a cell suspension containing 2.0 × 10^6 cells (BR2), 1.7 × 10^6 cells (BR3), or 4.0 × 10^5 cells (NCI-H1975-luc) was implanted into the left ventricle of anaesthetized mice (Supplementary Fig. S1). In the intracranial implantation mice model, the cell suspension containing 3.1 × 10^5 cells was implanted into the craniotomy region (2 mm to the left of the bregma and 1 mm anterior to the coronal suture). For measurement of bioluminescence, 0.2 mL of 10 mg/mL luciferin solution was injected intravenously into anesthetized mice via the tail vein and the photons emitted from tumor measured by IVIS Imaging System 200 (Caliper Life Sciences).
# Frozen brain tissues were cut into 10-µm sections using a cryostat (Leica CM3050 S; Leica Microsystems Inc., Wetzlar, Germany) at −20 °C. Sections were thaw-mounted onto glass microscope slides (Superfrost; Thermo Fisher Scientific Inc.) and stored at −80 °C until use. […] Standard solutions were spotted onto the glass microscope slides at 1 µL.
# Matrix-coated sections were analyzed using a linear ion trap mass spectrometer with a MALDI source (MALDI LTQ XL, Thermo Fisher Scientific Inc.) and a nitrogen laser (337 nm; 60 Hz). Laser energy and raster step size were set at 30 µJ and 100 µm, respectively. All compounds were detected in positive-ion mode using the product ion scans of their [M + H]^+ ions. […] Heme B was detected by MS3 (m/z 616 → 557 → 498) as a blood biomarker.
# Spectral data were acquired using Xcalibur 2.0.7 software (Thermo Fisher Scientific Inc.) and the localization and concentration of all compounds in the brain sections were analyzed using Quantinetix 1.7.10 software (ImaBiotech, Loos, France). The fluorescence intensity of Texas-Red® dextran and immunostaining intensity of HER2 were analyzed using a BZ-X analyzer (Keyence). Statistical analyses were performed using SAS software (version 9.4).
# [4] = Plasma concentration by LC-MS/MS in the breast cancer IVM; assay type: in vivo, mice; settings: female, BALB/cAJcl-nu/nu, mouse, po, 50 mg/kg; for concentration at 4 h: 4 h after single oral 50 mg/kg; for concentration at 8 h: 8 h after single oral 50 mg/kg
# Description: as §1, §2
# [5] = Quantitative MALDI-IMS of drug in brain metastases of the lung cancer IVM (NCI-H1975-luc); assay type: in vivo, mice; settings: female, BALB/cAJcl-nu/nu, mouse, tumor (brain metastasis) in brain sections, 4 h after oral 100 mg/kg
# Description: as §1, with “After blood sampling, brain tissues were immediately excised, frozen on dry ice, and stored at −80 °C prior to sectioning.” left out
# as §3, with “In the intracranial implantation mice model, the cell suspension containing 3.1 × 10^5 cells was implanted into the craniotomy region (2 mm to the left of the bregma and 1 mm anterior to the coronal suture).” left out, “Sciences). […]” for “Sciences).”
# Matrix-coated sections were analyzed using a linear ion trap mass spectrometer with a MALDI source (MALDI LTQ XL, Thermo Fisher Scientific Inc.) and a nitrogen laser (337 nm; 60 Hz). […] All compounds were detected in positive-ion mode using the product ion scans of their [M + H]^+ ions. […]
# [6] = Plasma concentration in the lung cancer IVM; assay type: in vivo, mice; settings: female, BALB/cAJcl-nu/nu, mouse, 4 h after oral 100 mg/kg
# Description: as §1, §2
# MDA-MB-361 cell line = test: In vitro growth inhibition of parental cell line; assay type: cell-based; settings: Homo sapiens
# Description: We evaluated the inhibitory activity of epertinib on the in vitro growth of the parental cell line, MDA-MB-361. […] To compare the growth inhibitory activity of epertinib on the parental and metastatic (BR2) cell lines, we evaluated the antitumor activity of epertinib in both cell lines. […] To confirm the antitumor activity of epertinib in the IVM, we examined the effect of epertinib on the IVM transplanted BR2.
# [7] = parameters: method as in PMID 25434923; settings: human, cited from earlier work
# EGFR [8] = test system: EGFR; parameters: method as in PMID 24837299; settings: cited from earlier work
# EGFR [9] = test system: EGFR; parameters: method as in PMID 24837299; settings: between 6 and 24 h after a single administration; cited from earlier work
# HER2 = test system: HER2; parameters: method as in PMID 24837299; settings: between 6 and 24 h after a single administration; cited from earlier work
# [10] = test system: patients with solid tumors; parameters: method as in PMID 25434923, PMID 25434923, PMID 25434923; settings: phase I trials; cited from earlier work
# [11] = test system: HER2-positive metastatic breast cancer patients; parameters: method as in earlier work; settings: cited from earlier work; for Objective response rate (ORR): heavily pretreated HER2-positive metastatic breast cancer
# [12] = BALB/cAJcl-nu/nu nude, brain, 20 mg/kg
# [13] = BALB/cAJcl-nu/nu, brain, 20 mg/kg
# [14] = BALB/cAJcl-nu/nu, plasma, 20 mg/kg
SMILES,"concentration at 8 h [1, 12] [ng/g]","Tmax [1, 13] [h]","concentration at 0.5 h [1, 13] [ng/g]","concentration at 1 h [1, 13] [ng/g]","concentration at 2 h [1, 13] [ng/g]","concentration at 4 h [1, 13] [ng/g]","concentration at 24 h [1, 13] [ng/g]","AUC(0-t) [1, 14] [ng·h/mL]","Cmax [1, 14] [ng/mL]","Tmax [1, 14] [h]","concentration at 1 h [1, 14] [ng/mL]","concentration at 2 h [1, 14] [ng/mL]","concentration at 4 h [1, 14] [ng/mL]","concentration at 8 h [1, 14] [ng/mL]","concentration at 24 h [1, 14] [ng/mL]","AUC0–24 h, brain [1] [ng·h/g]","Cmax, brain [1] [ng/g]",AUC(0-t) [2] [ng·h/mL],concentration at 4 h ([3]; BR2 IVM) [ng/g],concentration at 4 h ([3]; BR3 IVM) [ng/g],further results
CC#CC(=NOCC1COCCN1)c1ccc2ncnc(Nc3ccc(OCc4cccc(F)c4)c(Cl)c3)c2c1 (stereo not shown) [Epertinib],23.8,4,10.2,12.8,23,36.3,1.7,1260,145,2,113,145,115,54.7,2.1,409,36,9980,2930,2700,"Brain concentration of epertinib relative to that of lapatinib ([1]; 4 h after oral administration, 20 mg/kg): approximately twice; concentration at 0.5 h ([1]; BALB/cAJcl-nu/nu, in vivo, 20 mg/kg): 99.8 ng/mL; Concentration measured in brain metastases of the IVM with breast cancer ([3]; breast cancer IVM): 5.2 µM; Tumor concentration of epertinib relative to that of lapatinib ([3]; breast cancer IVMs, 4 h after administration): > 10 times; concentration at 8 h ([3]; BR3 IVM): 2710 ng/g; concentration at 4 h ([4]; BR2 IVM): 1440 ± 50 ng/mL; concentration at 4 h ([4]; BR3 IVM): 1300 ± 120 ng/mL; concentration at 8 h ([4]; BR3 IVM): 920 ± 300 ng/mL; concentration at 4 h [5]: 6700 ng/g; concentration at 4 h [6]: 2760 ± 660 ng/mL; IC50 (MDA-MB-361 cell line): 26.5 nM; Plasma exposure (AUC0–24 h) ([7]; effective dose 800 mg/day): 9170 ng·h/mL; Off-rate of dissociation compared with lapatinib (EGFR [8]): slower off-rate of dissociation; Inhibitory activity on EGFR phosphorylation at 24 h (EGFR [9]): persisted at 24 h; Inhibitory activity on HER2 phosphorylation at 24 h (HER2): persisted at 24 h; Tolerability [10]: well tolerated; Tumor reduction (partial response), brain metastases as the target lesion ([11]; all the participants in a clinical trial): two of 45; Objective response rate (ORR) ([11]; in combination with trastuzumab and capecitabine): 56%; Objective response rate (ORR) ([11]; in combination with trastuzumab): 67%; Tumor response (patients) ([11]; in combination with trastuzumab, patients previously treated with lapatinib plus capecitabine or ado-trastuzumab emtansine): seven of 21"
"CS(=O)(=O)CCNCc1ccc(-c2ccc3ncnc(Nc4ccc(OCc5cccc(F)c5)c(Cl)c4)c3c2)o1 [Lapatinib, N-{3-chloro-4-[(3-fluorobenzyl)oxy]phenyl}-6-[5-({[2-(methylsulfonyl)ethyl]amino}methyl)-2-furyl]-4-quinazolinamine, reference compound]",5.8,4,11.8,15.7,10,17,0.4,4110,985,0.5,763,413,461,99.6,5.4,144,17,34100,160,200,"concentration at 0.5 h [1, 14]: 984 ng/mL; concentration at 8 h ([3]; BR3 IVM): 190 ng/g; concentration at 4 h ([4]; BR2 IVM): 6690 ± 1310 ng/mL; concentration at 4 h ([4]; BR3 IVM): 2140 ± 220 ng/mL; concentration at 8 h ([4]; BR3 IVM): 630 ng/mL; concentration at 4 h [5]: 7080 ng/g; concentration at 4 h [6]: 9360 ± 1780 ng/mL; Plasma exposure (AUC0–24 h) ([7]; effective dose 1250 mg/day): 27300 ng·h/mL; Inhibitory activity on EGFR phosphorylation at 24 h (EGFR [9]): largely disappeared; Inhibitory activity on HER2 phosphorylation at 24 h (HER2): largely disappeared"
